Measurements as given in patent US9862676B2, “Hydroxamic acid derivative or salt thereof” (TOYAMA CHEMICAL CO., LTD., priority 2013, dated 2018).
Values after ≈ are worked out from the molar mass of the structure shown.

Legend:
[1] = test system: Pseudomonas aeruginosa ATCC27853 strain; test: Antibacterial activity, MIC by broth microdilution (CLSI); format: cell-based
Procedure: (§1) The minimum inhibitory concentration (MIC) was measured according to the CLSI (Clinical and Laboratory Standards Institute) standard method using a broth microdilution method given below. The bacteria used were a Pseudomonas aeruginosa ATCC27853 strain, an Escherichia coli ATCC25922 strain and a Klebsiella pneumoniae ATCC13883 strain. Test bacterial cells of each strain cultured overnight in a Mueller-Hinton agar medium were scraped off and suspended at the McFarland 0.5 standard, and this suspension was diluted 10-fold to prepare an inoculum solution. The inoculum solution (0.005 mL) was inoculated to a cation-adjusted Mueller-Hinton medium containing each test compound and cultured at 35° C. for 16 to 20 hours. The minimum drug concentration at which bacterial growth was not visible to the naked eye was defined as MIC.

[2] = Test on inhibition of Vero cell growth (XTT); format: cell-based; settings: African green monkey, Vero cells, 3 days culture, read-out: CC50 (concentration inhibiting 50% of cell growth)
Procedure: Each test compound was dissolved in dimethyl sulfoxide, adjusted to each concentration using E'MEM, and then dispensed at 0.1 mL/well to 96-well microplates. The Vero cell suspension was prepared at 3×10^4 cells/mL using E'MEM supplemented with 20% FBS, inoculated thereto at 0.1 mL/well, and cultured at 37° C. for 3 days under 5% CO2. At the completion of the culture, PBS supplemented with 1 mg/mL 2,3-bis-(2-methoxy-4-nitro-5-sulfophenyl)-5-((phenylamino)carbonyl)-2H-tetrazolium inner salt monosodium salt (XTT) and 25 μM phenazine methosulfate (PMS) was prepared and added thereto at 50 μL/well. Approximately 2 hours later, the absorbance at 450 nm was measured using a microplate reader.

[3] = molecular target: T1, Pseudomonas aeruginosa LpxC enzyme (Pseudomonas aeruginosa, UniProt P47205); test: Test to evaluate Pseudomonas aeruginosa LpxC enzyme inhibitory activity; format: biochemical
T1 construct: made in house; host or cells: Escherichia coli
T1 sequence (P47205 1-303): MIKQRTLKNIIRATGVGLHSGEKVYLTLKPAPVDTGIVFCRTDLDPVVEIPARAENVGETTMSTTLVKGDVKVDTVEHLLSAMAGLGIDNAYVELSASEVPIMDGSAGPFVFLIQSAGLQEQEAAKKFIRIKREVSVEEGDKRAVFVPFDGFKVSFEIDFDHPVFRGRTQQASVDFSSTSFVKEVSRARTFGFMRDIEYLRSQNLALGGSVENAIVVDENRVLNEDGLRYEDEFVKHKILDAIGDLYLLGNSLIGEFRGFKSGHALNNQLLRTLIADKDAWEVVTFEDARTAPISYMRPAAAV
Procedure: The Pseudomonas aeruginosa LpxC enzyme activity was measured by reacting LpxC with its substrate UDP-3-O—(R-3-hydroxydecanoyl)-N-acetylglucosamine and measuring the amount of the reaction product by the quantification of an amino group present in the product. This measurement was carried out according to a method described in, for example, International Publication No. WO 11/132712 pamphlet or a method similar thereto.
Specifically, to the Pseudomonas aeruginosa LpxC enzyme (which was obtained by preparing chromosomal DNA from Pseudomonas aeruginosa, obtaining the Pseudomonas aeruginosa LpxC gene by PCR (polymerase chain reaction) using LpxC-specific primers, and incorporating this gene into a vector, followed by gene expression using Escherichia coli), 20 μmol/L UDP-3-O—(R-3-hydroxydecanoyl)-N-acetylglucosamine (Wako Pure Chemical Industries, Ltd.) was added, and the mixture was incubated at 25° C. for 1 hour. This reaction was carried out in a 40 mmol/L HEPES buffer solution (pH 8.0) containing 0.02% Brij 35 and 80 μmol/L dithiothreitol. The reaction was terminated by the addition of 20% acetic acid (final concentration: 0.95%) to the reaction solution. Then, fluorescamine (final concentration: 1.6 mg/mL) dissolved in anhydrous dioxane was added thereto. The amount of the reaction product was detected at an excitation wavelength/fluorescence wavelength=390 nm/495 nm. Each test compound was allowed to coexist at various concentrations in the reaction to obtain an inhibition curve.

[4] = test system: multidrug-resistant Pseudomonas aeruginosa clinical isolate (S-2838 strain); test: Defense against mouse systemic infection using multidrug-resistant Pseudomonas aeruginosa; format: in vivo; settings: male ICR mice, S-2838 strain i.p., single intravenous dose 50 mg/kg 1 hour after infection
Procedure: The mice used were male ICR SPF mice (4 weeks old: 5 individuals per group). To prepare a bacterial inoculum solution, a multidrug-resistant Pseudomonas aeruginosa clinical isolate (S-2838 strain) cultured overnight at 37° C. on a Mueller-Hinton agar plate was cultured for 5 hours in a cation-adjusted Mueller-Hinton medium and then diluted 10-fold with a 10% mucin/phosphate buffer solution to prepare the inoculum solution. Infection was induced by the intraperitoneal inoculation of 0.5 mL of the inoculum solution (approximately 10^6 CFU/mouse) to each mouse. Each test compound was dissolved in a 10% hydroxypropylated β-cyclodextrin/2.5% mannitol aqueous solution and intravenously administered to the tail a single dose of 50 mg/kg at 1 hour after the infection. Three days after the infection, the number of survivors was recorded.

[5] = test system: Klebsiella pneumoniae ATCC13883 strain; test: Antibacterial activity, MIC by broth microdilution (CLSI); format: cell-based
Procedure: as §1

[6] = test system: Escherichia coli ATCC25922 strain; test: as above; format: cell-based
Procedure: as §1

| Structure (SMILES) | MIC [1] [µg/mL] | CC50 at 3 days [2] [µg/mL] | IC50 [3] [nM] | mice surviving 3 days after the bacterial inoculation [4] [%] | MIC [5] [µg/mL] | MIC [6] [µg/mL] |
| --- | --- | --- | --- | --- | --- | --- |
| CNC(=O)[C@@](C)(C(=O)NO)N(C)C(=O)c1ccc(C#Cc2ccc(C(O)CO)cc2)cc1 (stereo partly drawn) [Example 3, (2S)-2-((4-((4-(1,2-dihydroxyethyl)phenyl)ethynyl)benzoyl)(methyl)amino)-N-hydroxy-N′,2-dimethyl-malonamide] | 1 (≈ 2.28 µM) | ≥ 100 | < 50 | – | – | – |
| CNC(=O)[C@@](C)(C(=O)NO)N(C)C(=O)c1ccc(C#Cc2ccc([C@@H](O)CO)cc2)cc1 [Example 19, (2S)-2-((4-((4-((1R)-1,2-dihydroxyethyl)phenyl)ethynyl)benzoyl)(methyl)amino)-N-hydroxy-N′,2-dimethyl-malonamide] | 1 (≈ 2.28 µM) | ≥ 100 | < 50 | 100 | – | – |
| CNC(=O)[C@@](C)(C(=O)NO)N(C)C(=O)c1ccc(C#Cc2ccc(C(C)O)cc2)cc1 (stereo partly drawn) [Example 16, (2S)—N-hydroxy-2-((4-((4-(1-hydroxyethyl)phenyl)ethynyl)benzoyl)(methyl)amino)-N′,2-dimethyl-malonamide] | 1 (≈ 2.36 µM) | – | < 50 | – | 1 (≈ 2.36 µM) | 0.25 (≈ 0.59 µM) |
| CNC(=O)[C@@](C)(C(=O)NO)N(C)C(=O)c1ccc(C#Cc2ccc(COCCO)cc2)cc1 [Example 1, (2S)—N-hydroxy-2-((4-((4-((2-hydroxyethoxy)methyl)phenyl)ethynyl)benzoyl)(methyl)amino)-N′,2-dimethyl-malonamide] | 1 (≈ 2.21 µM) | ≥ 100 | < 50 | – | 1 (≈ 2.21 µM) | 0.25 (≈ 0.551 µM) |
| CNC(=O)[C@@](C)(C(=O)NO)N(C)C(=O)c1ccc(C#Cc2ccc([C@H](O)/C=C/CO)cc2)cc1 [Example 40, (2S)-2-((4-((4-((1R,2E)-1,4-dihydroxybut-2-ene-1-yl)phenyl)ethynyl)benzoyl)(methyl)amino)-N-hydroxy-N′,2-dimethyl-malonamide] | 1 (≈ 2.15 µM) | – | < 50 | – | 1 (≈ 2.15 µM) | 0.5 (≈ 1.07 µM) |
| CNC(=O)[C@@](C)(C(=O)NO)N(C)C(=O)c1ccc(C#Cc2ccc([C@H](O)CCO)cc2)cc1 [Example 25, (2S)-2-((4-((4-((1R)-1,3-dihydroxypropyl)phenyl)ethynyl)benzoyl)(methyl)amino)-N-hydroxy-N′,2-dimethyl-malonamide] | 0.5 (≈ 1.1 µM) | ≥ 100 | < 50 | – | – | 0.5 (≈ 1.1 µM) |
| CNC(=O)[C@@](C)(C(=O)NO)N(C)C(=O)c1ccc(C#Cc2ccc(C(O)CCCO)cc2)cc1 (stereo partly drawn) [Example 35, (2S)-2-((4-((4-(1,4-dihydroxybutyl)phenyl)ethynyl)benzoyl)(methyl)amino)-N-hydroxy-N′,2-dimethyl-malonamide] | 1 (≈ 2.14 µM) | ≥ 100 | < 50 | – | 1 (≈ 2.14 µM) | – |
| CNC(=O)[C@@](C)(C(=O)NO)N(C)C(=O)c1ccc(C#Cc2ccc(C(O)COC)cc2)cc1 (stereo partly drawn) [Example 13, (2S)—N-hydroxy-2-((4-((4-(1-hydroxy-2-methoxyethyl)phenyl)ethynyl)benzoyl)(methyl)amino)-N′,2-dimethyl-malonamide] | 1 (≈ 2.21 µM) | ≥ 100 | – | – | 1 (≈ 2.21 µM) | 0.25 (≈ 0.551 µM) |
| CNC(=O)[C@@](C)(C(=O)NO)N(C)C(=O)c1ccc(C#Cc2ccc([C@H](O)[C@H](C)O)cc2)cc1 [Example 33, (2S)-2-((4-((4-((1S,2S)-1,2-dihydroxypropyl)phenyl)ethynyl)benzoyl)(methyl)amino)-N-hydroxy-N′,2-dimethylmalonamide] | 1 (≈ 2.21 µM) | ≥ 100 | < 50 | – | – | 0.5 (≈ 1.1 µM) |
| CNC(=O)[C@@](C)(C(=O)NO)N(C)C(=O)c1ccc(C#Cc2ccc(CO[C@H](C)CO)cc2)cc1 [Example 10, (2S)—N-hydroxy-2-((4-((4-(((1R)-2-hydroxy-1-methylethoxy)methyl)phenyl)ethynyl)benzoyl)(methyl)amino)-N′,2-dimethyl-malonamide] | 1 (≈ 2.14 µM) | ≥ 100 | – | – | 0.5 (≈ 1.07 µM) | 0.25 (≈ 0.535 µM) |
| CNC(=O)[C@@](C)(C(=O)NO)N(C)C(=O)c1ccc(C#Cc2ccc(COCC(C)(C)O)cc2)cc1 [Example 7, (2S)—N-hydroxy-2-((4-((4-((2-hydroxy-2-methylpropoxy)methyl)phenyl)ethynyl)benzoyl)(methyl)amino)-N′,2-dimethyl-malonamide] | 1 (≈ 2.08 µM) | ≥ 100 | – | – | 0.5 (≈ 1.04 µM) | 0.25 (≈ 0.519 µM) |
| CNC(=O)[C@@](C)(C(=O)NO)N(C)C(=O)c1ccc(C#Cc2ccc([C@H](O)CCCO)cc2)cc1 [Example 39, (2S)-2-((4-((4-((1R)-1,4-dihydroxybutyl)phenyl)ethynyl)benzoyl)(methyl)amino)-N-hydroxy-N′,2-dimethyl-malonamide] | 1 (≈ 2.14 µM) | – | < 50 | 100 | 1 (≈ 2.14 µM) | 0.5 (≈ 1.07 µM) |
| CNC(=O)[C@@](C)(C(=O)NO)N(C)C(=O)c1ccc(C#Cc2ccc([C@H](O)COCCO)cc2)cc1 [Example 24, (2S)—N-hydroxy-2-((4-((4-((1S)-1-hydroxy-2-(2-hydroxyethoxy)ethyl)phenyl)ethynyl)benzoyl)(methyl)amino)-N′,2-dimethyl-malonamide] | 1 (≈ 2.07 µM) | ≥ 100 | < 50 | – | – | 0.5 (≈ 1.03 µM) |
| CNC(=O)[C@@](C)(C(=O)NO)N(C)C(=O)c1ccc(C#Cc2ccc([C@H](O)CCOC)cc2)cc1 [Example 36, (2S)—N-hydroxy-2-((4-((4-((1R)-1-hydroxy-3-methoxypropyl)phenyl)ethynyl)benzoyl)(methyl)amino)-N′,2-dimethylmalonamide] | 0.5 (≈ 1.07 µM) | ≥ 100 | < 50 | – | 1 (≈ 2.14 µM) | 0.25 (≈ 0.535 µM) |
| CNC(=O)[C@@](C)(C(=O)NO)N(C)C(=O)c1ccc(C#Cc2ccc(C(O)CCO)cc2)cc1 (stereo partly drawn) [Example 17, (2S)-2-((4-((4-(1,3-dihydroxypropyl)phenyl)ethynyl)benzoyl)(methyl)amino)-N-hydroxy-N′,2-dimethylmalonamide] | 1 (≈ 2.21 µM) | ≥ 100 | < 50 | – | – | – |
